Experimental findings from US5506102A (priority 1993, dated 1996) are described below.

In experiment [1] the target is T1, human estrogen receptor (Homo sapiens, UniProt P03372).
T1 construct: expressed in transfected cells; host or cells: CV-1
T1 sequence (P03372 1-595): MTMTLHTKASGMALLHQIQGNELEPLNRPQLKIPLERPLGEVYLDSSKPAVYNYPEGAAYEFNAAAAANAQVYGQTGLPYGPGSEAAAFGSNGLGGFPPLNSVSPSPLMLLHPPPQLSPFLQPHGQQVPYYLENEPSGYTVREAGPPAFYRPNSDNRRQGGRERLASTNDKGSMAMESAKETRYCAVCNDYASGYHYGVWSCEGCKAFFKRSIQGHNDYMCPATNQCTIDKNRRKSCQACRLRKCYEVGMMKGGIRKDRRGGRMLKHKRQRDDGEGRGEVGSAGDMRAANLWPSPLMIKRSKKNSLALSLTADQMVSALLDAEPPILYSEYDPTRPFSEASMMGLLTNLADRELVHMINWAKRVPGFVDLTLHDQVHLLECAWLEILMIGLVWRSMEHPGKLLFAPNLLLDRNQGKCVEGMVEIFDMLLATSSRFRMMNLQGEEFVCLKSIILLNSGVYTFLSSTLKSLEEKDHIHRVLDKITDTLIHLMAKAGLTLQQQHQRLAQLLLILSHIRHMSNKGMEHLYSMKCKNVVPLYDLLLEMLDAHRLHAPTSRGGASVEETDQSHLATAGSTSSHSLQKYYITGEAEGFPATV
The experiment is described as follows: ER transcriptional activity on MMTV-ERE-LUC, CV-1 cells, ER alone. In kind it is cell-based. As to conditions: 10^-7 M 17β-estradiol. How it is done: (§1) All values were normalized for transfection efficiency by simultaneous estimation of luciferase and β-galactocidase activities. The relative luciferase activity is calculated by dividing the normalized luciferase value at a given point by that obtained in the absence of transfected receptor or ligand. Data shown represent the mean +/- the average deviation from the mean of triplicate estimations.
Experimental protocols and data calculation are as described in FIG. 11. The experiment detailed above is representative of independent assays (N>3). Data shown represent the mean +/- the average deviation from the mean of triplicate estimations.
(§2) Vegeto et al., supra. Cells were plated into 96-well tissue culture plates. The vector DNA was introduced into the CV-1 cells using calcium phosphate coprecipitation as described herein. More specifically, 20 μg of DNA/ml of transfection buffer were used in each transfection. […] The concentration of pXVhPR-A vector chosen was determined by performing the experiment at several different concentrations of vector, and then using that concentration that was optimal for transcriptional readout. […] The Normalized LUC activity was calculated by dividing the raw luciferase (×10^4) units for each point by the β-galactosidase activity [(OD415 nm ×10^5)/time min.] at that point.

Experiment [2] relates to human estrogen receptor. The experiment is described as follows: ER transcriptional activity on MMTV-ERE-LUC, CV-1 cells, ER co-expressed with PR-B. In kind it is cell-based. The settings on record: 10^-7 M 17β-estradiol, FIG. 11D. As to the method:
as §1
as §2, with “transfection. Each transfection mix included 0.5 μg of pRST7hER, 9.5 μg of MMTV-ERE-LUC, 5 μg of pCH110, (which contains the gene for β-galactosidase) as an internal control and 5 μg of PGEM4 DNA as a carrier.” for “transfection.”

Consider `CC(=O)[C@H]1CC[C@H]2[C@@H]3CCC4=CC(=O)CC[C@]4(C)[C@H]3CC[C@]12C` [progesterone], for which the “direct effects on ER” value in experiment [1] was “no direct effects on ER were observed”. The “inhibition of ER function with hPR-B” value in experiment [2] is “hPR-B will not inhibit”.
